{"source": "patent US20050234100A1", "about": "“Insulin resistance as new action of loperamide” (Yu Sheng Pharmaceutical Co., Ltd., priority 2004, published 2005)", "key": {"[1]": {"test_system": "TNF-α induced insulin resistant C2C12 myoblasts", "assay": "insulin-stimulated glucose uptake in TNF-α induced insulin resistant C2C12 myoblasts", "type": "cell-based, mouse", "details": "for glucose uptake stimulated by insulin in TNF-α treated C2C12 myoblasts, antagonist alone: without loperamide", "description": "(§1) The C2C12 cells, obtained from Culture Collection and Research Center (CCRC 60083) of the Food Industry Institute (Hsin-Chiu City, Taiwan) were plated at 5×10^4 cells/dish in 35-mm diameter culture dishes in Dulbecco's modified Eagle's medium (DMEM) (GIBCO BRL, Gaithersburg, Md.) supplemented with 10% fetal bovine serum (FBS) (GIBCO BRL) and 1% antibiotic solution (penicillin 10,000 U/ml, streptomycin 10 mg/ml, amphotericin B 25 μg/ml) and were grown to 80% confluence at 37° C. in humidified atmosphere containing 5% CO2. Myoblast differentiation was induced with DMEM supplemented with 5% horse serum, L-glutamine, and penicillin/streptomycin for 72 h. Differentiated myotubes were starved for 5 h in serum-free DMEM before treatment as described previously (Sheriff et al., 1992).\nCultured C2C12 myoblasts (5×10^6) were incubated with loperamide at desired concentration or the same volume of vehicle in a cultivation condition oxygenated with a mixture of 95% O2 and 5% CO2 at 37° C. temperature for 3 days. Then, tumor necrosis factor-α (TNF-α) at concentration of 10 ng/ml was added. One hour later, cells were flushed down with 0.05% trypsin and put under centrifugal force at 13,000 rpm for 5 minutes, and clear liquid on top was then thrown away. Insulin ([…]) was used to simulate glucose uptake into cells using 2-[1-^14C]-Deoxy-D-Glucose (2-DG) (the final concentration of isotope was 0.25 μCi/ml) as indicator for 5-min incubation. The reaction was terminated in ice-bath. Then, C2C12 myoblasts were washed with buffer liquid three times. Finally, cells were lysed with 1 M NaOH and put into scintillation vial. The 2-DG specific uptake of cells was measured as indicated above.\nThe effect of loeramide on insulin resistance was further investigated in C2C12 myoblasts using TNF-α induced insulin resistance as described previously (Ruan et al., 2002; Mikael et al., 2002). Incubation with loperamide for 3 days at desired concentration, C2C12 myoblasts were treated with TNF-α (10 ng/ml) for one hour. Then, insulin was used to stimulate glucose uptake using 2-DG as indicator following the above method."}, "C2C12 myoblasts": {"test_system": "C2C12 myoblasts", "assay": "2-DG glucose uptake in C2C12 myoblasts", "type": "cell-based, mouse", "description": "as §1\nGlucose uptake was determined using 2-[^14C]-deoxy-D-glucose (2-DG) (New England Nuclear, Boston, Mass.). After 5 h of serum starvation, cells were incubated with or without pharmacological inhibitors at indicated concentrations for 30 min at 37° C. Then, the cells were incubated with loperamide at indicated concentrations at 37° C. for another 30 min under continuous shaking at 40 cycles/min. The cells were further incubated with 2-DG (1 μCi/ml) for 5 min at 37° C. Uptake was terminated by aspiration of the solution. Cells were then washed three times, and radioactivity associated with the cells was determined by cell lysis in 1 M NaOH, and the aliquots were neutralized to be estimated in scintillation counter. 2-DG uptake was expressed as the percentage of the basal 2-DG uptake that was taken as 100% from samples incubated with DMEM only. Nonspecific uptake was obtained by parallel determinations in the presence of 20 μmol/l cytochalasin B (Sigma, St. Louis, Mo., USA)."}, "[2]": {"test_system": "STZ-induced type-I diabetic rats", "details": "intravenous injection; cited from earlier work"}, "[3]": {"test_system": "Zucker-diabetic fatty rats", "assay": "glucose challenge test in Zucker-diabetic fatty rats", "type": "in vivo", "details": "loperamide 2, 6, 18 μg/kg", "description": "(§2) Animals were food-restricted and given only water to drink for overnight before the experiment. On the morning of examination, the basal blood sample (0.1 ml) drawn from the tail veins of these rats were regarded as 0 min samples. Then, each animal was immediately received an intraperitoneal injection of glucose at 1 g/kg body wt to induce the glucose tolerance test (IGTT). Blood samples from the tail vein were drawn at 5, 10, 20, 30, 60, 90, 120 min after the glucose feeding for measurement of plasma levels of glucose and insulin. Immediately after the completion of the IGTT, all animals received 2 ml of sterile saline subcutaneously to compensate for plasma loss. The obtained whole blood was thoroughly mixed with 10 IU heparin and centrifuged at 13,000×g to separate the plasma. Concentration of plasma glucose was measured by the glucose oxidase method via an analyzer (Quik-Lab, Ames, Miles Inc., Elkhart, Ind., USA) with samples run in duplicate. Enzyme-linked immunosorbent assay was carried out to measure plasma insulin using the commercial kit (Penisula Lab. Inc., Belmont, Calif., USA). Glucose-insulin index was calculated as the product of the glucose and insulin areas under the curve (AUC) as described previously (Kara et al., 2000). In order to evaluate whether loperamide could improve insulin resistance, four different doses of loperamide (2 ? 6 ? 12 ? 18 μg/kg) were injected into abdomen of each animal 30 minutes before the injection of glucose.\n(§3) The blood sample was centrifuged to obtain plasma. Then, 10 μl of plasma was mixed with 1.0 ml of Glucose Kit Reagent (Biosystems S.A., Barcelona, Spain) at 37° C. for 10 minutes. The glucose concentration was measured in duplicate using Quik-lab analyzer (Ames, Miles Inc., Elkhart, Ind., USA) and expressed to the value of mg/dl. Results of plasma glucose lowering activity were calculated as percentage decrease of the initial value according to the formula: (Gi−Gt)/Gi×100% where Gi was the initial glucose concentration and Gt was the plasma glucose concentration after treatment of loperamide or same volume of vehicle.\n(§4) Enzyme-linked immunosorbent assay (ELISA) was carried out to measure plasma insulin using the commercial kit (Penisula Lab. Inc., Belmont, Calif., USA). The measurement principle utilized the polyclonal antibodies in rabbit to directly identify the carboxyl-terminal of human insulin. Biotinylated peptide would compete with test subject the integration position with antibodies. After washing away the biotinylated peptides that was not integrated with antibodies, streptavidin-conjugated Horseradish Peroxidase (SA-HRP) was used to react with immobilized primary antibody/biotinylated peptide complex. Then, TMB (3,3′,5,5′-Tetramethyl Benzidine Dihydrochloride) is added to react with HRP and then yellow color was shown. The lightness or darkness of color was determined by the amount of biotinylated peptide integrated with antibodies. […] The standard curve was ploted according to the amounts of light absorption of standard subjects at 450 nm. Then through log/logit, the insulin concentration was calculated using MicroReader™ 4 Plus.\nIn order to know similar action of loperamide is also effective in genetic animal, the present study employed the Zucker-diabetic fatty rats to investigate IGTT in addition. Also, control group was treated with the same volume of vehicle (saline). The only difference is that glucose (0.5 g/kg) was given by intravenous injection at 30 minutes later of treatment."}, "[4]": {"test_system": "fructose-rich chow-fed Wistar rats (insulin resistance)", "assay": "intraperitoneal glucose tolerance test (IGTT) in fructose-induced insulin resistant rats", "type": "in vivo", "description": "as §2\nAfter 2 weeks on standard chow (Purina Mills, Inc.), half of the Wistar rats were randomly assigned to receive the fructose-rich chow (Teklad, Madison, Wis.) containing 60% fructose for 4 additional weeks to induce insulin resistance that was confirmed by the loss of tolbutamide action. The other rats still received standard chow during the 4-week period.\nas §3, §4\nUsing glucose-insulin index (Kara et al., 2000) as indicator, effect of loperamide on insulin resistance was investigated in fructose-fed rats. The control group was treated with the same volume of saline, while test groups were injected loperamide at four doses (2 ? 6 ? 12 ? 18 μg/kg) into abdomens. […]"}, "[5]": {"details": "TNF-α treated C2C12 myoblasts, antagonist dose dependence"}}, "data": [{"smiles": "C=CCN1CC[C@]23c4c5ccc(O)c4O[C@H]2/C(=N/N=C2\\CC[C@@]4(O)[C@H]6Cc7ccc(O)c8c7[C@@]4(CCN6CC=C)[C@H]2O8)CC[C@@]3(O)[C@H]1C5", "note": "[naloxonazine]", "values": [{"measurement": "effect of antagonist on action of loperamide (10 μM)", "setting": "[1]; [5]", "value": "inhibited the effect of loperamide in a dose-dependent manner"}, {"measurement": "effect of antagonist on action of loperamide (10 μM)", "setting": "[1]; antagonist at 1 μM", "value": "eliminated the action of loperamide"}, {"measurement": "glucose uptake stimulated by insulin in TNF-α treated C2C12 myoblasts, antagonist alone", "setting": "[1]; antagonist at 1 μM", "value": "did not modify the glucose uptake"}]}, {"smiles": "CN(C)C(=O)C(CCN1CCC(O)(c2ccc(Cl)cc2)CC1)(c1ccccc1)c1ccccc1", "note": "[loperamide]", "values": [{"measurement": "incubation time to maximal plateau of 2-DG uptake", "setting": "C2C12 myoblasts; C2C12 myoblasts about 10^6 cells, 37° C.", "value": "about 25 min"}, {"measurement": "2-DG uptake, concentration dependence", "setting": "C2C12 myoblasts; loperamide 10 nM to 10 μM, 30 min incubation", "value": "increase of 2-DG uptake in a concentration-dependent manner"}, {"measurement": "glucose uptake relative to control", "setting": "C2C12 myoblasts; loperamide 10 μM (maximal concentration), N=8", "value": "about 1.3 times of the control"}, {"measurement": "2-DG uptake", "setting": "C2C12 myoblasts; loperamide 10 μM, no antagonist, 8 experiments", "value": "204.3±4.7", "unit": "pmol/mg protein/5 min"}, {"measurement": "plasma glucose", "setting": "[2]", "value": "produced plasma glucose lowering effect"}, {"measurement": "glucose uptake in TNF-α induced insulin resistant C2C12 myoblasts", "setting": "[1]; loperamide 10 μM (maximal concentration)", "value": "reversed the glucose uptake in TNF-α induced insulin resistant C2C12 myoblasts to the level near normal control"}, {"measurement": "glucose uptake stimulated by insulin in TNF-α treated C2C12 myoblasts", "setting": "[1]; loperamide incubation 3 days, TNF-α 10 ng/ml 1 hour, dose dependence", "value": "reversed the glucose uptake stimulated by insulin in TNF-α treated C2C12 myoblasts in a dose-dependent manner"}, {"measurement": "AUC of plasma glucose", "setting": "[3]", "value": "inhibited by loperamide but at a higher dosing"}, {"measurement": "glucose-insulin index", "setting": "[3]", "value": "dose-dependently decreased"}, {"measurement": "total area (AUC) of plasma insulin", "setting": "[3]", "value": "reduced by loperamide in a dose-dependent manner"}, {"measurement": "plasma insulin after glucose challenge", "setting": "[3]; 5 min after glucose injection", "value": "reduction of plasma insulin by loperamide was obtained in a dose-dependent fashion"}, {"measurement": "plasma glucose after glucose challenge", "setting": "[3]; 35 min after treatment (5 min after 0.5 g/kg glucose i.v.)", "value": "lowering of plasma glucose"}, {"measurement": "raise of plasma glucose during IGTT", "setting": "[4]; fructose-fed rats, loperamide 2, 6, 12, 18 μg/kg into abdomen, 60 minutes after injection (30 minutes after 1 g/kg glucose i.p.), vs control group", "value": "reduce the raise of plasma glucose significantly"}, {"measurement": "plasma insulin levels and incremental area under the insulin curve during IGTT", "setting": "[4]; fructose-fed rats, loperamide 2-18 μg/kg into abdomen", "value": "lowered"}, {"measurement": "total AUC for the glucose response during IGTT", "setting": "[4]; fructose-fed rats, loperamide 2-18 μg/kg into abdomen, vs vehicle-treated control", "value": "markedly lower than that from vehicle-treated control"}, {"measurement": "glucose-insulin index during IGTT", "setting": "[4]; fructose-rich chow-fed rats, loperamide 2-18 μg/kg into abdomen, index = product of glucose and insulin AUC", "value": "reduced the value of glucose-insulin index"}]}, {"smiles": "C=CCN1CC[C@]23c4c5ccc(O)c4O[C@H]2C(=O)CC[C@@]3(O)[C@H]1C5", "note": "[naloxone]", "values": [{"measurement": "loperamide (10 μM)-induced 2-DG uptake in the presence of antagonist", "setting": "C2C12 myoblasts; naloxone 0.1 μM, 8 experiments", "value": "183.2±4.1", "unit": "pmol/mg protein/5 min"}, {"measurement": "loperamide (10 μM)-induced 2-DG uptake in the presence of antagonist", "setting": "C2C12 myoblasts; naloxone 1 μM, 8 experiments", "value": "169.9±5.0", "unit": "pmol/mg protein/5 min"}, {"measurement": "effect of antagonist on action of loperamide (10 μM)", "setting": "[1]; [5]", "value": "inhibited the effect of loperamide in a dose-dependent manner"}, {"measurement": "effect of antagonist on action of loperamide (10 μM)", "setting": "[1]; antagonist at 1 μM", "value": "eliminated the action of loperamide"}, {"measurement": "glucose uptake stimulated by insulin in TNF-α treated C2C12 myoblasts, antagonist alone", "setting": "[1]; antagonist at 1 μM", "value": "did not modify the glucose uptake"}, {"measurement": "action of loperamide to lower glucose-insulin index in the presence of naloxone", "setting": "[4]; naloxone 1 mg/kg 1 hour before loperamide 18 μg/kg, fructose-rich chow-fed rats", "value": "reversed to that near to the value in fructose-rich chow-fed rats received vehicle treatment"}, {"measurement": "glucose-insulin index, naloxone alone", "setting": "[4]; naloxone 1 mg/kg, fructose-rich chow-fed rats", "value": "did not modify the value of glucose-insulin index directly"}]}]}
